{
  "source": "patent US11534457B2",
  "about": "“Use of dextran sulfate” (priority 2017, dated 2022)",
  "key": {"[1]": {"test_system": "βIII-tubulin expression in mouse cortical neurons", "assay": "βIII-tubulin immunostaining (differentiation-related protein expression)", "type": "cell-based", "settings": "48 h", "procedure": "Neurons were cultured as 40,000 cells per well and Schwann cells 3,000 cells per. Cells were treated after 24 hours. The number of cells per well depended on the growth phenotype, proliferative capacity, etc.\nPNGM was prepared by adding PNGM Singlequots (Lonza) to PNBM medium and pre-warmed to 37° C. Cells were thawed in a 37° C. water bath for no longer than 2 min and gently transferred into a 15 ml tube. 5 ml of medium was gently added drop-wise. Cell suspension was mixed by inverting the tube carefully twice. Cells were counted with a Cellometer AUTO T4 (Nexcelom Bioscience). 40,000 cells per well were seeded in previously coated 96-well plates. Cells were incubated at 37° C. with 5% CO2. […]\nLMW-DS was prepared in the culture media of choice for each cell line and added to the respective wells in the doses 0.01 and 0.1 mg/ml. For cell survival assays cells were analyzed after 24 and 48 hours in eight identical wells/dose/time point. Differentiation and protein expression assay was analyzed after 48 hours, also in octuplicates. […]\nThe Acumen cytometer allows the direct cytometric analysis of attached cells without prior detachment. […] The protein content of the cells can also be directly measured and expressed as either ‘total protein content’ or ‘mean protein content’."}, "[2]": {"test_system": "CASM3C system [coronary artery smooth muscle cells+(IL-1β, TNFα and IFNγ)]", "assay": "BioMAP CASM3C system", "type": "cell-based, Human", "from_the_text": "(§1) In this study LMW-DS was characterized by profiling in the BioMAP® Diversity PLUS panel. The BioMAP® panel consists of human primary cell-based systems designed to model different aspects of the human body in an in vitro format. The 12 systems in the BioMAP® Diversity PLUS panel (Table 32) allow test agent characterization in an unbiased way across a broad set of systems modeling various human disease states. The BioMA®P systems are constructed with one or more primary cell types from healthy human donors, with stimuli, such as cytokines or growth factors, added to capture relevant signaling networks that naturally occur in human tissue or pathological conditions. […]\n(§2) Systems are derived from either single cell types or co-culture systems. […] Test agents prepared in either DMSO (small molecules; final concentration 0.1%) or PBS (biologics) are added at the indicated concentrations 1-hr before stimulation, and remain in culture for 24-hrs or as otherwise indicated (48-hrs, MyoF system; 72-hrs, BT system (soluble readouts); 168-hrs, BT system (secreted IgG)). […] Soluble factors from supernatants are quantified using either HTRF® detection, bead-based multiplex immunoassay or capture ELISA. Overt adverse effects of test agents on cell proliferation and viability (cytotoxicity) are detected by sulforhodamine B (SRB) staining, for adherent cells, and alamarBlue® reduction for cells in suspension. […]"}, "[3]": {"test_system": "HDF3CGF system [HDFn+(IL-1β, TNFα, IFNγ, EGF, bFGF and PDGF-BB)]", "assay": "BioMAP HDF3CGF system", "type": "cell-based, Human", "from_the_text": "as §1, with “conditions. Vascular biology is modeled in both a Th1 (3C system) and a Th2 (4H system) inflammatory environment, as well as in a Th1 inflammatory state specific to arterial smooth muscle cells (CASM3C system).” for “conditions.”\nas §2, with “suspension. For proliferation assays, individual cell types are cultured at subconfluence and measured at time points optimized for each system (48-hrs: 3C and CASM3C systems; 72-hrs: BT and HDF3CGF systems; 96-hrs: SAg system).” for “suspension.”"}, "[4]": {"test_system": "KF3CT system [keratinocytes and HDFn+(IL-1β, TNFα, IFNγ and TGFβ)]", "assay": "BioMAP KF3CT system", "type": "cell-based, Human", "from_the_text": "as §1, §2"}},
  "note": "Entries after “also recorded” stand apart in the source; their conditions may differ.",
  "data": [
    {"substance": "low molecular weight dextran sulfate [LMW-DS]", "values": [
      {"measurement": "βIII-tubulin intensity", "setting": "[1]; 0.01 and 0.1 mg/ml", "result": "significantly increased"},
      {"measurement": "size of βIII-tubulin positive cells vs control culture", "setting": "[1]", "result": "larger"},
      {"measurement": "Decreased biomarker activity", "setting": "[2]; CASM3C system", "result": "VCAM-1, MIG"},
      {"measurement": "key inflammation biomarkers including MIG, VCAM, IP-10 and ITAC", "setting": "[2]; all tested concentrations", "result": "decreased over all tested concentrations"},
      {"measurement": "Decreased biomarker activity", "setting": "[3]; HDF3CGF system", "result": "VCAM-1, IP-10,; also recorded: ITAC, MIG, M-CSF"},
      {"measurement": "Increased biomarker activity", "setting": "[3]; HDF3CGF system", "result": "EGFR, MMP-1,; also recorded: PAI-1"},
      {"measurement": "key inflammation biomarkers including MIG, VCAM, IP-10 and ITAC", "setting": "[3]; all tested concentrations", "result": "decreased over all tested concentrations"},
      {"measurement": "Decreased biomarker activity", "setting": "[4]", "result": "MCP-1"},
      {"measurement": "Increased biomarker activity", "setting": "[4]", "result": "IL-8"}
    ]}
  ]
}
